Results on 20 molecules are retold here after the OPERA property sets (Mansouri et al. 2018).

`O=c1[nH]c(=O)n([C@H]2C[C@H](F)[C@@H](CO)O2)cc1Cl` had a lipophilicity (logP) of -0.17.
`Nc1nc(N)c2ncn(C3CC(O)C(CO)O3)c2n1` (stereo not given) came in with a log partition coefficient (logP) of -0.52.
In turn, `Nc1nc(N)c2ncn(C3CC(F)C(CO)O3)c2n1` (stereo not given) showed a log partition coefficient (logP) of 0.05.
`O=c1ccn(C2CC(O)C(CO)O2)c(=O)[nH]1` (stereo not given): the log partition coefficient (logP) was -1.51.
Molecule `O=c1[nH]c(=O)n(C2CC(F)C(CO)O2)cc1Br` (stereo not given) registered a log partition coefficient (logP) of -0.04.
On to `[N-]=[N+]=N[C@H]1C[C@H](n2cnc3c(N)ncnc32)O[C@@H]1CO`, for which the logP was found to be 0.35.
Molecule `[N-]=[N+]=NC1C(CO)OC(n2cnc3c(N)ncnc32)C1N=[N+]=[N-]` (stereo not given) showed a log partition coefficient (logP) of 0.8.
As for `O=c1[nH]c(=O)n(C2CCC(CO)O2)cc1Br` (stereo not given), the lipophilicity (logP) is -0.99.
Regarding `O=c1ccn([C@H]2C=C[C@@H](CO)O2)c(=O)[nH]1`, the logP was -1.07.
In turn, `Nc1ncnc2c1ncn2[C@H]1C[C@H](F)[C@@H](CO)O1` yielded a logP of 0.08.
`O=c1[nH]c(=O)n([C@H]2CC[C@@H](CO)O2)cc1I`: the lipophilicity (logP) is -0.61.
The molecule `Cc1cn([C@H]2C[C@H](F)[C@@H](CO)O2)c(=O)[nH]c1=O` displayed a lipophilicity (logP) of -0.28.
With `O=c1[nH]c(=O)n(C2CC(F)C(CO)O2)cc1I` (stereo not given) the figure was 0.21.
The molecule `Nc1nc(=O)c2ncn([C@H]3C[C@H](F)[C@@H](CO)O3)c2[nH]1` registered a logP of -0.66.
`Nc1nc(=O)c2ncn([C@H]3C=C[C@@H](CO)O3)c2[nH]1` displayed a logP of -1.21.
The result for `O=c1ccn(C2CC(F)C(CO)O2)c(=O)[nH]1` (stereo not given) reads -0.49; that for `O=c1[nH]c(=O)n([C@H]2CC[C@@H](CO)O2)cc1Cl`, -1.11.
With `[N-]=[N+]=N[C@H]1C[C@H](n2cnc3c(N)nc(N)nc32)O[C@@H]1CO` the figure was 0.24; with `[N-]=[N+]=NC1CC(n2ccc(=O)[nH]c2=O)OC1CO` (stereo not given), -0.32.
Molecule `Nc1nc(=O)c2ncn([C@H]3CC[C@@H](CO)O3)c2[nH]1` registered a log partition coefficient (logP) of -1.01.

As a reminder, the logP is the decadic logarithm of the partition coefficient of the neutral form, usually between octanol and water. High values mean a more lipophilic compound, low ones a more hydrophilic compound.
